Experimental data taken from patent publication US9676760B2, “Fused heterocyclic compounds as ion channel modulators” (Gilead Sciences, Inc., priority 2011, dated 2017).

What was measured:
[1] = test system: Female New Zealand rabbits; experiment: Ischemia-induced ST segment elevation in anesthetized rabbits; format: in vivo, rabbit
Method: This study was undertaken to determine the anti-ischemic effects of compounds of the present disclosure in an in vivo rabbit model.
Female New Zealand rabbits (3.0-4.0 kg) were purchased from Western Oregon Rabbitry. Animals were housed on a 12-h light and dark cycle and received standard laboratory chow and water. All experiments were performed in accordance with the Guide for the Care and Use of Laboratory Animals published by The National Research Council and with the experimental protocol approved by the Institutional Animal Care Committee of Gilead Sciences, Inc.
Rabbits were anesthetized with ketamine (35 mg/kg) and xylazine (5 mg/kg) intramuscular injection (im). A tracheotomy was performed and the trachea was intubated with an endotracheal tube. The animal was ventilated with room air supplemented with oxygen using a pressure control animal ventilator (Kent Scientific Corp., Torrington, Conn.) at a respiratory rate of 40 strokes/min and peak inspiration pressure of 10 mmH2O, which was adjusted to keep blood gases and pH within the physiological range (iSTAT clinic analyzer, Heska Corp.; Waukesha, Wis.). The left femoral artery was cannulated for the measurement of blood pressure (BP). Blood samples were also withdrawn from femoral artery. The right external jugular vein was cannulated for drug/vehicle administration. Needle electrodes were inserted subcutaneously into the limbs for recording of the surface electrocardiogram (ECG). The heart was exposed via an incision in the 4th intercostal space (4th and/or 5th ribs were cut for a clear surgical vision). The chest was opened and a pericardial cradle was formed using 4 retractors. A coronary artery occluder, comprised of a snare made of 5 cm PE-10 tubing with a 6-0 Prolene polypropylene suture in it, was placed loosely around the left anterior descending artery (LAD) at its origin. Two unipolar electrodes, made with teflon coated silver wire attached to a small patch of filter paper, were attached on the surface of the ischemic and normal regions of the left ventricle to record epicardial electrocardiogram. Reference electrodes were placed in the open incision of the neck. The body temperature of the animal was monitored via a rectal thermometer and maintained at 37-40° C. by adjusting the surface temperature of the surgical table. Regional ischemia (15 min) was induced by ligating the LAD followed by 15 min of reperfusion caused by releasing the ligation. The heart was excised at the end of the experiment and the LAD was re-ligated. The ischemic area was visualized by perfusing the heart with 1% Evans blue in saline and calculated as a percentage of total ventricular weight. Rabbits with ischemic area less than 10% or larger than 25% were excluded from the analysis. Animals were randomly assigned to vehicle and test compound groups. Test compounds was dissolved in 5% NMP, 30% PG, 45% PEG 400 and 20% de-ionized water (dH2O). Test compound was given as an iv bolus at 0.1, 0.2 and 0.4 mg/kg. After 30 min of dosing, the heart was subjected to 15 min of ischemia followed by 15 min of reperfusion.

hERG potassium channel = hERG potassium channel (Homo sapiens, UniProt Q12809); experiment: hERG screening assay (PatchXpress, CHO cells); format: cell-based; design: hERG: unit not given here
Chain of hERG potassium channel (Q12809 whole entry): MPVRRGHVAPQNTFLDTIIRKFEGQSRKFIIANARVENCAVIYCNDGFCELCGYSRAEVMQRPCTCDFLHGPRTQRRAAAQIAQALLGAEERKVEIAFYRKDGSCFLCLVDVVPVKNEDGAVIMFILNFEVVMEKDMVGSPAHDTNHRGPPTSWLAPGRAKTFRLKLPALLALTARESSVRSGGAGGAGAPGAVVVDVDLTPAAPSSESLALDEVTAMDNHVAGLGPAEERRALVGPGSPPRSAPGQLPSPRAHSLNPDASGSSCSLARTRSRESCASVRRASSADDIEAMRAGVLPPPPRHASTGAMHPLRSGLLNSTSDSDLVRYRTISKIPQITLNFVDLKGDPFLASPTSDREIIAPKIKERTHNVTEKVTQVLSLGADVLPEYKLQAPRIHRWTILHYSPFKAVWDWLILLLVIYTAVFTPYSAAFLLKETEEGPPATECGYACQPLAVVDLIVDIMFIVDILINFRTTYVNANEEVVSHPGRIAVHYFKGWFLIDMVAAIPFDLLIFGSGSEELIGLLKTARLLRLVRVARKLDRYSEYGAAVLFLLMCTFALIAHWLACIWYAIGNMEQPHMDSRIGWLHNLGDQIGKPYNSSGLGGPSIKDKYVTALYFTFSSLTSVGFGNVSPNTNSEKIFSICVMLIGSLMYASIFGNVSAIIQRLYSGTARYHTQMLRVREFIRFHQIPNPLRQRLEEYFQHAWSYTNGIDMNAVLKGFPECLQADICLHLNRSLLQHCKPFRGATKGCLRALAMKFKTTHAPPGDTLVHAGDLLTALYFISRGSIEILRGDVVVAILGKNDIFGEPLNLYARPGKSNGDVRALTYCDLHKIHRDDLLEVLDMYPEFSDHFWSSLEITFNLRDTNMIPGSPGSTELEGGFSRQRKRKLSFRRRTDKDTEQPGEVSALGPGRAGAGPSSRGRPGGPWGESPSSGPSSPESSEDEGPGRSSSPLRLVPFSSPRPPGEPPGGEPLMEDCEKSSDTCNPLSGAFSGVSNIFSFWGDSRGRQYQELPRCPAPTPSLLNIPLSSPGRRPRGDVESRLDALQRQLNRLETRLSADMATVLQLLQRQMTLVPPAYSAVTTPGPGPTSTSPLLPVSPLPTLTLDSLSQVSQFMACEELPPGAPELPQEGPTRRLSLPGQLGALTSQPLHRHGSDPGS
Method: Compounds were also tested for their effect to block the hERG K^+ channel.
Compounds were screened to test their activity in blocking the hERG potassium channel at AVIVA Biosciences (San Deigo, Calif., USA). The hERG channel is heterologously expressed in a CHO (Chinese Hamster Ovary) cell line. Cells were maintained with standard tissue culture procedures and stable channel expression was maintained with 500 μg/mL G418 in the culture medium. Cells were harvested for testing on the PatchXpress 7000A automated patch clamp with Accumax (Innovative Cell Technologies, San Diego, Calif.) to isolate single cells.
The following solutions were used for electrophysiological recordings. The external solution contained: 2 mM CaCl2; 2 mM MgCl2; 4 mM KCl; 150 mM NaCl; 10 mM Glucose; 10 mM HEPES (pH 7.4 with 1M NaOH; osmolarity, ˜310 mOsm).
hERG channels were activated when the voltage was first stepped to −50 mV for 300 ms from the −80 mV holding potential and then stepped to +20 mV for 5 seconds. At +20 mV the channels open and then largely inactivate, so the currents are relatively small. Upon returning to −50 mV from +20 mV, hERG currents transiently become much larger as inactivation is rapidly removed and then the channel closes. The first step to −50 mV for 300 ms was used as a baseline for measuring the peak amplitude during the step to −50 mV after channel activation. The peak tail current at −50 mV was measured both under control conditions and after addition of compound, each cell serving as its own control.
All compounds were prepared as 10 mM DMSO stocks in glass vials. Stock solutions were mixed by vigorous vortexing and sonication for about 2 minutes at room temperature. For testing, compounds were diluted in glass vials using an intermediate dilution step in pure DMSO and then further diluted to working concentrations in external solution. Dilutions were prepared no longer than 20 minutes before use.
For the electrophysiological recordings, after achieving the whole-cell configuration, cells were monitored for 90 seconds to assess stability and washed with external solution for 66 seconds. The voltage protocol described above was then applied to the cells every 12 seconds and throughout the whole procedure. Only cells with stable recording parameters and meeting specified health criteria were allowed to enter the compound addition procedure.
External solution containing 0.1% DMSO (vehicle) was applied to the cells first to establish the control peak current amplitude. After allowing the current to stabilize for 3 to 5 minutes, 1 μM and then 10 μM test compounds were applied. Each compound concentration was added 4 times and cells were kept in test solution until the effect of the compound reached steady state or for a maximum of 12 minutes. […] Washout in the external solution compartment was performed until the recovery of the current reached steady state.

[2] = biological target: T1, wild-type human cardiac sodium channel, hNav1.5 (Homo sapiens, UniProt Q14524); experiment: Peak INa screening assay (tonic and use-dependent block); format: cell-based; settings: compound at 1 μM
T1 sequence (Q14524 whole entry): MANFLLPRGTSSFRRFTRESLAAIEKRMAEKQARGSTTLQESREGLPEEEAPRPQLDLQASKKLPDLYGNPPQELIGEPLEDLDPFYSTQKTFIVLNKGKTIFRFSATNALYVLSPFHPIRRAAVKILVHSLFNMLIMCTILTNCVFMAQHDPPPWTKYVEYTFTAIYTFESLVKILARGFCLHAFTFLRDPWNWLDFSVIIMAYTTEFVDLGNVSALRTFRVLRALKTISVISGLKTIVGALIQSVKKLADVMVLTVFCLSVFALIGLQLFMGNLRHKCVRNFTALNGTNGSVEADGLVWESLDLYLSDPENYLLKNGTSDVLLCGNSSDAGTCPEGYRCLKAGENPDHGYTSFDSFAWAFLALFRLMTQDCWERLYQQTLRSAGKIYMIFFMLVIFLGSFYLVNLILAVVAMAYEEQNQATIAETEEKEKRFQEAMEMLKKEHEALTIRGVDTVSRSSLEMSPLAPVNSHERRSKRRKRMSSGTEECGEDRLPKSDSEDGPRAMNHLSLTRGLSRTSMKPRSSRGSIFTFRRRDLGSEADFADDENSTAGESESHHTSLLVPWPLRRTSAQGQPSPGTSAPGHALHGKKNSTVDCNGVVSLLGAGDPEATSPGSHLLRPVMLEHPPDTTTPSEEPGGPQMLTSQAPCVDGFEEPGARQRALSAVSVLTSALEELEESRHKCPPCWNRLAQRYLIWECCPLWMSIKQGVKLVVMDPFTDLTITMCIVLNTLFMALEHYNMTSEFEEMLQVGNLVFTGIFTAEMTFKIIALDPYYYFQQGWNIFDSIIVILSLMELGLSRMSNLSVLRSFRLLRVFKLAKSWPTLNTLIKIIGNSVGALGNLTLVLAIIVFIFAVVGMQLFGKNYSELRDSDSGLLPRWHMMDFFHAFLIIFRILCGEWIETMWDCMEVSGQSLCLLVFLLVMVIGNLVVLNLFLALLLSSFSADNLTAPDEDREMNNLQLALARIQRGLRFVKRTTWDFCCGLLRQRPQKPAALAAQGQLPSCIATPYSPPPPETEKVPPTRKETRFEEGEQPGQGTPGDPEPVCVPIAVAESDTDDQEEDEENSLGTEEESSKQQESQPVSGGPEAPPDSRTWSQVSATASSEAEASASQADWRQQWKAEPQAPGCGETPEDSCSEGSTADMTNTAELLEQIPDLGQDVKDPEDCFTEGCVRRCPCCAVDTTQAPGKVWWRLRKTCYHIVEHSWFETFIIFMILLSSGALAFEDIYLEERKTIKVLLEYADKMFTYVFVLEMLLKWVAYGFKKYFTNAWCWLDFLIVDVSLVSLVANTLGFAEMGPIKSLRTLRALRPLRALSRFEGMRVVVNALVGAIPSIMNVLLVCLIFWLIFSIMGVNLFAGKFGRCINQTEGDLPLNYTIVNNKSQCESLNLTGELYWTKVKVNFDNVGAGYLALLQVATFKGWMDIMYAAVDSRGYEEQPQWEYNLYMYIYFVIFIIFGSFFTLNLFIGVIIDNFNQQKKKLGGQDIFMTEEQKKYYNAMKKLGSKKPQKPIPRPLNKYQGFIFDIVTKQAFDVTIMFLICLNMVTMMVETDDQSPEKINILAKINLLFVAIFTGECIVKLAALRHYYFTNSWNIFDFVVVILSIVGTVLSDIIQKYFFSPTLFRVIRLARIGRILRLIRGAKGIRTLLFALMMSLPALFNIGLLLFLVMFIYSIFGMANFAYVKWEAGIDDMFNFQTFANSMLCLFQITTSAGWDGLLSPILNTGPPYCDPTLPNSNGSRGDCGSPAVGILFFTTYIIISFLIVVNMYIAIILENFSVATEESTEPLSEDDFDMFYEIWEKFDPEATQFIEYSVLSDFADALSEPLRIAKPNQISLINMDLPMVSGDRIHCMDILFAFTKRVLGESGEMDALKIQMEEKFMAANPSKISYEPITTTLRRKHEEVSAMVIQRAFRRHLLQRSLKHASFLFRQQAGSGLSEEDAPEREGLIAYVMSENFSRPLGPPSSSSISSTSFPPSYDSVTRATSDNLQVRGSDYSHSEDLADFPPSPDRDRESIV
How it was run: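 Whole-cell automated patch clamp (QPatch) at 23–25°C on HEK293 cells stably expressing hNav1.5 alpha subunit only, with CsF/CsCl pipette solution, pH 7.4. Compound at 1 μM in extracellular solution; bath Na+ could be cut to 20 mM with a nonpermeant cation. Tonic block measured at 0.1 Hz, use-dependent block at 3 Hz.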

[3] = biological target: T1, wild-type human cardiac sodium channel, hNav1.5; experiment: Late INa screening assay (QPatch whole cell patch clamp, HEK293); format: cell-based
How it was run: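 HEK293 stably expressing hNav1.5 without beta subunits, recorded at 23-25° C. Late current was induced by 10 μM tefluthrin. Cells were depolarized from −120 mV to −20 mV for 250 ms at 0.1 Hz. Compounds were tested at 1 μM in extracellular solution, with baseline taken in 0Na-ECF; output is percent block of late INa.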

| Compound | area under curve (AUC) for the ST segment height reduced (vs. control) ([1]; 0.28 μM plasma concentration, iv bolus, 15 min ischemia) [%] | effect on blood pressure (BP), heart rate (HR) and ECG intervals prior to the ischemia ([1]; at the plasma concentration levels studied) | ischemia-induced ST elevation ([1]; iv bolus 30 min before 15 min ischemia) | hERG (hERG potassium channel) | inhibition at 1 µM ([2]; tonic block of peak INa, 0.1 Hz, read-out: Peak TB 1 μM) [%] | inhibition at 1 µM ([2]; use-dependent block of peak INa, 3 Hz, read-out: Peak UDB 1 μM) [%] | inhibition at 1 µM ([3]; HEK293, % Inhibition at 1 uM, read-out: Late INa*) [%] | inhibition at 1 µM ([3]; HEK293, percent block of late INa, compound at 1 μM, 10 μM Tefluthrin, read-out: Late INa 1 μM) [%] |
| --- | --- | --- | --- | --- | --- | --- | --- | --- |
| O=C1c2cc(-c3ccc(C(F)(F)F)cc3)ccc2OCCN1Cc1ncccn1 [II-61, 4-(pyrimidin-2-ylmethyl)-7-(4-(trifluoromethyl)phenyl)-3,4-dihydrobenzo[f][1,4]oxazepin-5(2H)-one] | 38 | no significant effect | dose-dependently prevented | <10 |  |  |  |  |
| Cc1cccc(CN2CCOc3ccc(-c4ccc(OC(F)(F)F)cc4)cc3C2=O)n1 [II-17, 4-((6-methylpyridin-2-yl)methyl)-7-(4-(trifluoromethoxy)phenyl)-3,4-dihydrobenzo[f][1,4]oxazepin-5(2H)-one] |  |  |  | <10 | 47 | 46 | 59 | 59 |
